The values below come from paper PMC12473123, “Structure–Function Insights into Quinuclidine-3-One BisQACs: Synthesis, Modulation of Bacterial Resistance, Structure–Activity Relationship, and Biological Profiling” (Pharmaceuticals, 2025).

Experiment [1] relates to Staphylococcus aureus ATCC 25923. Description: Broth microdilution MIC. The class given is cell-based. As to conditions: for MIC: Staphylococcus aureus, ATCC25923, read-out: Minimum Inhibitory Concentrations (MIC). In general terms: Broth dilution looks for growth in wells or tubes with falling amounts of substance.
The subject of experiment [2] is Staphylococcus aureus ATCC 33591 (methicillin-resistant). In words: Broth microdilution MIC. The class given is cell-based. As to conditions: for MIC: Staphylococcus aureus, ATCC33591, read-out: Minimum Inhibitory Concentrations (MIC).
Experiment [3] concerns Staphylococcus aureus Clinical/MRSA. In words: Broth microdilution MIC. As to conditions: for MIC: Staphylococcus aureus, MRSA, read-out: Minimum Inhibitory Concentrations (MIC). The class given is cell-based.
Experiment [4] deals with Bacillus cereus ATCC 14579. In words: Broth microdilution MIC. The class given is cell-based. As to conditions: ATCC14579, read-out: Minimum Inhibitory Concentrations (MIC), Bacillus cereus ATCC 14579.
In experiment [5] the test system is Listeria monocytogenes ATCC 7644. In words: Broth microdilution MIC. The class given is cell-based. To be noted: Listeria monocytogenes, ATCC7644, read-out: Minimum Inhibitory Concentrations (MIC), Listeria monocytogenes ATCC 7644.
For experiment [6], the system named is Enterococcus faecalis ATCC 29212. In words: Broth microdilution MIC. The class given is cell-based. As to conditions: for MIC: Enterococcus faecalis, ATCC29212, read-out: Minimum Inhibitory Concentrations (MIC), Enterococcus faecalis ATCC 29212.
The test system of experiment [7] is Escherichia coli ATCC 25922. Description: Broth microdilution MIC. As to conditions: for MIC: Escherichia coli, ATCC25922, read-out: Minimum Inhibitory Concentrations (MIC). The class given is cell-based.
For experiment [8], the system named is Salmonella enterica (food isolate). In words: Broth microdilution MIC. The class given is cell-based. As to conditions: read-out: Minimum Inhibitory Concentrations (MIC).
In experiment [9] the test system is Pseudomonas aeruginosa ATCC 27853. Description: Broth microdilution MIC. The class given is cell-based. To be noted: Pseudomonas aeruginosa, ATCC27853, read-out: Minimum Inhibitory Concentrations (MIC).
The test system of experiment [10] is Staphylococcus aureus ATCC 25923. Description: Biofilm inhibition assay (crystal violet). The class given is cell-based. As to the method:
(§1) The ability of the candidate compounds to inhibit biofilm formation was evaluated by determining the minimum biofilm inhibitory concentration (MBIC) against the biofilm-forming strains Staphylococcus aureus ATCC 25923 and Listeria monocytogenes ATCC 7644. Overnight bacterial cultures were diluted in fresh, pre-warmed Mueller–Hinton broth (MHB) and incubated at 37 °C with constant shaking at 220 rpm. Once the cultures reached the exponential growth phase (OD600 = 0.3–0.5), they were standardized to a final concentration of 4 × 10^6 CFU/mL.
(§2) Plates were incubated at 37 °C for 24 to 48 h, depending on the bacterial strain. After incubation, the planktonic cells were carefully aspirated to preserve the integrity of the biofilm layer. Wells were gently rinsed with sterile ultrapure Milli-Q water and air-dried at 60 °C for 1 h to fix the biofilms. Biofilm formation was quantified using a crystal violet (CV) staining method. Wells were stained with 100 µL of 0.1% CV solution and incubated at room temperature for 1 h. Excess dye was removed by rinsing with sterile ultrapure Milli-Q water, followed by air-drying. Bound CV was solubilized with 100 µL of 70% ethanol and incubated for 30 min. The solubilized dye was transferred to a fresh plate, and absorbance was measured at 595 nm using a microplate reader (Bio-Tek EL808, Winooski, VT, USA). Absorbance values were directly proportional to biofilm biomass. Untreated bacterial cultures served as positive controls for biofilm formation, while sterile MHB served as the negative control.

Experiment [11] deals with Listeria monocytogenes ATCC 7644. Description: Biofilm inhibition assay (crystal violet). The class given is cell-based. As to conditions: L. monocytogenes. Here is the method: as §1
as §2, with “Aliquots (50 µL) of the standardized bacterial suspension were inoculated into 96-well microtiter plates containing the test compounds at final concentrations of 100, 50, 25, and 12.5 µg/mL. Plates” for “Plates”

A further experiment has as its system HEK293 cells. Description: Cytotoxicity MTS assay. The class given is cell-based, human. As to conditions: HEK293 cells, 48 h, MTS; read-out: IC50 HEK293. As to the method:
(§3) The cytotoxic potential of the selected drug candidates was evaluated using the CellTiter 96® AQueous One Solution Cell Proliferation Assay (Promega, Madison, WI, USA), following the manufacturer’s protocol. Human cell lines RPE1 and HEK293 were cultured at 37 °C in a humidified incubator with 5% CO2. Test compounds were dissolved in the appropriate growth medium and serially diluted across a range of concentrations in 96-well microtiter plates. Each well was seeded with 5000 cells and incubated for 48 h under standard culture conditions. Following this incubation period, 20 µL of MTS reagent was added to each well, and the plates were further incubated for 3 h to allow for color development. Absorbance was measured at 490 nm using a microplate reader to determine cell viability. Cytotoxicity was quantified as the half-maximal inhibitory concentration (IC50), defined as the concentration of compound that reduced cell viability by 50%. […] IC50 values were calculated using GraFit 6.0 software by plotting compound concentration against absorbance and fitting the data to a sigmoidal dose–response curve.
(In general: Formazan colour is commonly taken as a measure of viable cells.)

Another experiment relates to RPE1 cells. In words: Cytotoxicity MTS assay. The class given is cell-based, human. As to conditions: RPE1 cells, 48 h, MTS; read-out: IC50 RPE1. Here is the method: as §3

Structures are written as SMILES. Bounds are passed on as bounds.

Take `CCCCCCCCCCCCNC1C[N+]2(CCC[N+]34CCC(CC3)C(NCCCCCCCCCCCC)C4)CCC1CC2` (racemic) [2(QC12)3, (±)-1,1′-(Propane-1,3-diyl) bis(3-(dodecylamino)quinuclidinium) dibromide]: the MIC in experiment [1] was 75 µM; in experiment [2] it was 75 µM; in experiment [3], more than 75 µM; in [4], more than 75 µM; in [5] it was 38 µM; in [6], more than 75 µM. The MIC in experiment [7] is more than 75 µM; in [8], 75 µM; in experiment [9] it was more than 75 µM.

For the molecule `CCCCCCCCCCCCNC1C[N+]2(CCCC[N+]34CCC(CC3)C(NCCCCCCCCCCCC)C4)CCC1CC2` (racemic) [2(QC12)4, (±)-1,1′-(Butane-1,4-diyl) bis(3-(dodecylamino)quinuclidinium) dibromide], the MIC in [1] is more than 75 µM; in [2] it was 75 µM; in [3], more than 75 µM; in experiment [4], more than 75 µM; in experiment [5], 75 µM; in [6], more than 75 µM. Also, the MIC in experiment [7], in experiment [8] and in experiment [9] was more than 75 µM throughout.

With `CCCCCCCCCCCCNC1C[N+]2(CCCCCC[N+]34CCC(CC3)C(NCCCCCCCCCCCC)C4)CCC1CC2` (racemic) [2(QC12)6, (±)-1,1′-(Hexane-1,6-diyl) bis(3-(dodecylamino)quinuclidinium) dibromide], the MIC in [1] was 75 µM; in [2], 19 µM; in experiment [3] it was more than 75 µM; in experiment [4], more than 75 µM; in experiment [5], 38 µM; in [6] it was 75 µM. The results for the MIC in experiment [7], in [8] and in experiment [9] were 38 µM, more than 75 µM and more than 75 µM, respectively.

With `CCCCCCCCCCCCCCNC1C[N+]2(CCC[N+]34CCC(CC3)C(NCCCCCCCCCCCCCC)C4)CCC1CC2` (racemic) [2(QC14)3, (±)-1,1′-(Propane-1,3-diyl) bis(3-(tetradecylamino)quinuclidinium) dibromide], the MIC in [1] was 75 µM; in experiment [2], 75 µM; in experiment [3], more than 75 µM; in experiment [4] it was more than 75 µM; in [5], 38 µM; in experiment [6], more than 75 µM. In addition, the MIC in experiment [7], in [8] and in [9] was more than 75 µM throughout.

With `CCCCCCCCCCCCCCNC1C[N+]2(CCCC[N+]34CCC(CC3)C(NCCCCCCCCCCCCCC)C4)CCC1CC2` (racemic) [2(QC14)4, (±)-1,1′-(Butane-1,4-diyl) bis(3-(tetradecylamino)quinuclidinium) dibromide], the MIC in experiment [1] was more than 75 µM; in experiment [2], 75 µM; in experiment [3], more than 75 µM; in experiment [4], more than 75 µM; in experiment [5] it was more than 75 µM; in experiment [6], more than 75 µM. The MIC in experiment [7], in experiment [8] and in experiment [9] was more than 75 µM throughout.

In the case of `O=C1C[N+]2(CCC[N+]34CCC(CC3)C(=O)C4)CCC1CC2` [2(QO)3, 1,1′-(Propane-1,3-diyl) bis(3-oxoquinuclidinium) dibromide], the MIC in experiment [1], in experiment [2], in experiment [3], in [4], in [5] and in [6] was more than 75 µM throughout. In addition, the MIC in [7], in experiment [8] and in experiment [9] was more than 75 µM in each case.

With `O=C1C[N+]2(CCCC[N+]34CCC(CC3)C(=O)C4)CCC1CC2` [2(QO)4, 1,1′-(Butane-1,4-diyl) bis(3-oxoquinuclidinium) dibromide], the MIC in experiment [1], in experiment [2], in experiment [3], in experiment [4], in [5] and in experiment [6] was more than 75 µM throughout. The MIC in [7], in experiment [8] and in experiment [9] was more than 75 µM each time.

As to `O=C1C[N+]2(CCCCCC[N+]34CCC(CC3)C(=O)C4)CCC1CC2` [2(QO)6, 1,1′-(Hexane-1,6-diyl) bis(3-oxoquinuclidinium) dibromide], the MIC in experiment [1], in experiment [2], in [3], in experiment [4], in [5] and in [6] was more than 75 µM each time. Besides, the MIC in experiment [7], in experiment [8] and in experiment [9] was more than 75 µM throughout.

On to `CCCCCCCCCCCC[N+](C)(C)Cc1ccccc1.[Br-]` [BAB, benzyldodecyldimethylammonium bromide, reference compound], for which the “Minimum Inhibitory Concentrations (MIC)” value in experiment [1] (Staphylococcus aureus ATCC 25923) was determined as 10 µM; in [2] (Staphylococcus aureus ATCC 33591) it was 25 µM; in experiment [3] (Staphylococcus aureus Clinical/MRSA) it was 25 µM; in experiment [6] (Enterococcus faecalis ATCC 29212), 15 µM; in experiment [7] (Escherichia coli ATCC 25922), 63 µM. Further, the MIC in experiment [8] stood at 50 µM. In addition, the biofilm inhibition in experiment [10] (S. aureus ATCC 25923, across all tested concentrations) is listed as more than 74%; in [11] (12.5 µg/mL) it was “comparable values”; in [11] (25 µg/mL), 20%; in experiment [11] (50 µg/mL), “remaining consistent”; in [11] (100 µg/mL), 44%. Besides, the half-inhibitory concentration (IC50) (as a rule, the concentration that inhibits the measured activity by half) came out at 3000 nM with HEK293 cells and 820 nM in the experiment with RPE1 cells.

For `CO/N=C(\C(=O)N[C@@H]1C(=O)N2C(C(=O)O)=C(COC(C)=O)CS[C@H]12)c1csc(N)n1` [CFX, cefotaxime, reference compound], the biofilm inhibition in [10] (S. aureus ATCC 25923, 50 µg/mL) is 62%; in experiment [11] (12.5 µg/mL) it was “similarly low values”. In experiment [11] (Listeria monocytogenes, ATCC7644, 25 µg/mL, read-out: biofilm inhibition), the inhibition (commonly the relative decrease from the control value, in per cent) at 25 µg/mL turned out to be 6%. Moreover, the inhibition at 50 µg/mL in [11] (Listeria monocytogenes, ATCC7644, 50 µg/mL, read-out: biofilm inhibition) is more than 20%. For the same molecule, the inhibition at 100 µg/mL in experiment [11] (Listeria monocytogenes, ATCC7644, 100 µg/mL, read-out: biofilm inhibition) is more than 20%.
